# Reference: patent US4077981A, “Certain 1-alkyl-2-dichlorophenyliminopyrrolidines” (Bayer Aktiengesellschaft, priority 1968, dated 1978)
# Legend:
# Boophilus, Biarra strain [1] = test: In-vitro test for adulticidal effect on ticks (24 hours); design: species or system Boophilus microplus; conditions: Table 4, after 24 hours, at the concentrations stated
# Procedure: (§1) In addition, the adulticidal effectiveness of the preparation of the given active compound after 24 hours is determined by ascertaining the voluntary movement of limbs and bodies of the immersed adult ticks after stimulation with a fine needle compared with the voluntary movement of limbs and bodies of the untreated adult ticks. The effectiveness is stated in %, 100% meaning that no movements of any kind of the limbs and bodies were any longer detectable, and 0% signifying that the ticks moved limbs and bodies in normal manner.
# [2] = tested on: Boophilus microplus, Biarra strain (resistant); test: In-vitro test for ovicidal effect on ticks (Biarra strain); conditions: for Ovicidal effect: 50% inhibition with the stated concentration of active compound: Table 4, concentration giving 50% inhibition
# Procedure: (§2) In-vitro Test for Ovicidal Effect on Ticks
# The emulsion concentrate so obtained is diluted with water to the application concentration desired in each case.
# After immersion of, in each case, 10 female specimens of the various strains of ticks, the individual ticks are transferred to plastic dishes, the bottom of each of which is covered with a disc of filter paper.
# Boophilus, Biarra strain [3] = test: In-vitro test for ovicidal and adulticidal effect on ticks; design: species or system Boophilus microplus
# Procedure: In-vitro test for ovicidal and adulticidal effect on ticks
# The ovicidal effect is determined as stated in Example 1.
# as §1
# The results below were obtained in a similar manner to those in accordance with Example 4.
# [4] = tested on: Boophilus microplus, Biarra strain; test: In-vivo test against ticks on cattle; design: species or system Boophilus microplus (on cattle); conditions: 0.3%
# Procedure: In-vivo test against ticks on cattle
# 3 parts of the particular active compound are mixed with 7 parts of a mixture of equal parts by weight of ethyleneglycol monomethyl ether and nonylphenyl polyglycol ether. The emulsion concentrate so obtained is diluted with water to the application concentration desired in each case.
# Cattle which have been infected (12 times at intervals of 2 days) with resistant larvae of ticks of the species Boophilus microplus, Biarra strain, are sprayed on the 24th day after the first infection with the preparation of the given active compound so obtained.
# The effect of the preparation of the given active compound is determined by ascertaining the number of adult female ticks which have reached development on the treated cattle and later lay viable eggs. This number is compared with the number of adult femal ticks which have reached development on untreated cattle.
# As a measure of the intensity of the infestation before treatment, there is used the number of adult females which reach development in the case of the treated and untreated animals in the last three days before the time of treatment.
# [5] = tested on: Boophilus microplus, Ridgeland strain (resistant); test: In-vitro test for ovicidal effect on ticks (Ridgeland strain); conditions: Table 1b, * Ridgeland strain
# Procedure: as §2
# 3 g of the particular active compound are mixed with 7 g of a mixture of equal parts by weight of ethyleneglycol monomethyl ether and nonylphenyl polyglycol ether. The emulsion concentrate so obtained is diluted with water to the application concentration desired in each case.
# Adult, fully engorged female ticks of the species Boophilus microplus (resistant) are immersed for 1 minute in this preparation of the given active compound. After immersion of, in each case, 10 female specimens of the various strains of ticks, the individual ticks are transferred to plastic dishes, the bottom of each of which is covered with a disc of filter paper. As a control, similar ticks of a normally sensitive strain are treated in exactly the same manner.
# After 35 days, the effectiveness of the preparation of the given active compound is determined by ascertaining the inhibition of the depositing of fertile eggs compared with the egg depositing of untreated control ticks. The effect is stated in %, 100% meaning that fertile eggs ceased to be deposited, and 0% signifying that the ticks have deposited eggs in normal manner like the untreated control ticks.
# [6] = ovicidal only (marked not adulticidal)
# [7] = Table 4, concentration giving 100% inhibition, ovicidal only (marked not adulticidal)
# [8] = Table 4, concentration giving 50% inhibition
# [9] = Table 4, concentration giving 100% inhibition
# [10] = Table 5, concentration giving 50% inhibition
# [11] = Table 5, concentration giving 100% inhibition
Structure (SMILES),"Adulticidal effect (Boophilus, Biarra strain [1])","Ovicidal effect: 50% inhibition with the stated concentration of active compound [2, 6]","Ovicidal effect: 100% inhibition with the stated concentration of active compound [2, 7]","Adulticidal and ovicidal effect: 50% inhibition with the stated concentration of active compound (Boophilus, Biarra strain [3]; [10])","Adulticidal and ovicidal effect: 100% inhibition with the stated concentration of active compound (Boophilus, Biarra strain [3]; [11])",other results
CC=CCN1CCCC1=Nc1ccc(Cl)cc1Cl,not adulticidal,0.03 % by weight,0.01 % by weight,–,–,–
CC=CCN1CCCC1=Nc1ccc(Br)cc1CC,not adulticidal,0.05 % by weight,0.1 % by weight,–,–,–
CCN1CCCC1=Nc1ccc(F)c(Cl)c1,–,–,–,–,–,"Adulticidal and ovicidal effect: 50% inhibition with the stated concentration of active compound (Boophilus, Biarra strain [3]; [8]): 0.1 % by weight; Adulticidal and ovicidal effect: 100% inhibition with the stated concentration of active compound (Boophilus, Biarra strain [3]; [9]): 0.3 % by weight"
C=C(C)CN1CCCC1=Nc1ccc(Cl)cc1Cl,–,–,–,0.01 % by weight,0.03 % by weight,–
CCCN1CCCC1=Nc1ccc(F)cc1Cl,not adulticidal,0.03 % by weight,0.1 % by weight,–,–,–
C=CCN1CCCC1=Nc1cccc(Cl)c1Cl,not adulticidal,0.008 % by weight,0.01 % by weight,–,–,–
C=CCN1CCCC1=Nc1ccc(F)cc1Cl,not adulticidal,0.03 % by weight,0.1 % by weight,–,–,–
C=CCN1CCCC1=Nc1ccc(F)c(Cl)c1,–,–,–,–,–,"Adulticidal and ovicidal effect: 50% inhibition with the stated concentration of active compound (Boophilus, Biarra strain [3]; [8]): 0.08 % by weight; Adulticidal and ovicidal effect: 100% inhibition with the stated concentration of active compound (Boophilus, Biarra strain [3]; [9]): 0.1 % by weight"
C=CCN1CCCC1=Nc1ccc(Br)c(Br)c1,–,–,–,–,–,"Adulticidal and ovicidal effect: 50% inhibition with the stated concentration of active compound (Boophilus, Biarra strain [3]; [8]): 0.05 % by weight; Adulticidal and ovicidal effect: 100% inhibition with the stated concentration of active compound (Boophilus, Biarra strain [3]; [9]): 0.1 % by weight"
C=CCN1CCCC1=Nc1ccc(C)c(Br)c1,–,–,–,0.03 % by weight,0.1 % by weight,–
C=C(C)CN1CCCC1=Nc1ccc(C)c(Cl)c1,–,–,–,0.03 % by weight,0.1 % by weight,–
C=CCN1CCCC1=Nc1ccc(Cl)c(Cl)c1 [Compound 41],–,–,–,–,–,"Number of female adult ticks which reach development on the cattle ([4]; days after treatment +1+2+3): 0; Number of female adult ticks which reach development on the cattle ([4]; days after treatment +4+5+6): 0; Number of female adult ticks which reach development on the cattle ([4]; days after treatment +7+8+9): 7; Number of female adult ticks which reach development on the cattle ([4]; days after treatment +10+11+12): 6; Number of female adult ticks which reach development on the cattle ([4]; days after treatment +13+14+15): 4; Number of female adult ticks which reach development on the cattle ([4]; days after treatment +16+17+18): 0; Number of female adult ticks which reach development on the cattle ([4]; days after treatment +19+20+21): 0; Number of female adult ticks which reach development on the cattle ([4]; days before treatment -2 -1 0 (baseline)): 262; Total number of female adult ticks which reach development on the cattle ([4]; total 1-21 days): 17; Ovicidal effect: 100% inhibition with the stated concentration of active compound ([2]; Table 1b, concentration giving 100% inhibition): 0.03 % by weight; Ovicidal effect: >50% inhibition with the stated concentration of active compound ([2]; Table 1b, concentration giving >50% inhibition): 0.01 % by weight"
C=CCN1CCCC1=Nc1ccc(Br)c(C)c1,–,–,–,0.03 % by weight,0.1 % by weight,–
C=CCCN1CCCC1=Nc1ccc(C)c(Cl)c1,–,–,–,0.02 % by weight,0.03 % by weight,–
C=C(C)CN1CCCC1=Nc1ccc(Cl)c(Cl)c1,–,–,–,0.03 % by weight,0.1 % by weight,–
Cc1cc(Cl)ccc1N=C1CCCN1C(C)C [Compound 241],–,–,–,–,–,Ovicidal effect: 100% inhibition with the stated concentration of active compound ([5]; concentration giving 100% inhibition): 1.0 % by weight; Ovicidal effect: >50% inhibition with the stated concentration of active compound ([5]; concentration giving >50% inhibition): 0.3 % by weight
